Assay results published in US10562850B2, “Human plasma kallikrein inhibitors” (priority 2015, dated 2020).

Assays:
[1] = biological target: human plasma kallikrein (Homo sapiens (Human), UniProt P03952); experiment: Plasma Kallikrein Activity Assay (chromogenic substrate S2302); format: biochemical; conditions: 2 nM kallikrein, 80 μM S2302, 30° C., pH 7.8; Cheng-Prusoff
In short: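 2 nM human plasma kallikrein incubated at 30° C with 80 μM S2302 and increasing compound concentrations in 50 mM Tris-HCl pH 7.8, 200 mM NaCl, 2.5 mM CaCl2. Activity read as absorbance change at 405 nm; four-parameter logistic fit, Ki by Cheng-Prusoff.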

[2] = test system: patients with hereditary angioedema (HAE); conditions: cited from earlier work
[3] = test system: rat models of arthritis; conditions: cited from earlier work
[4] = test system: animal model of ischemic stroke; conditions: cited from earlier work
[5] = test system: sepsis patients; conditions: cited from earlier work
[6] = test system: mouse model of middle cerebral artery occlusion (MCAO); conditions: cited from earlier work

Chain of human plasma kallikrein (P03952 391-638): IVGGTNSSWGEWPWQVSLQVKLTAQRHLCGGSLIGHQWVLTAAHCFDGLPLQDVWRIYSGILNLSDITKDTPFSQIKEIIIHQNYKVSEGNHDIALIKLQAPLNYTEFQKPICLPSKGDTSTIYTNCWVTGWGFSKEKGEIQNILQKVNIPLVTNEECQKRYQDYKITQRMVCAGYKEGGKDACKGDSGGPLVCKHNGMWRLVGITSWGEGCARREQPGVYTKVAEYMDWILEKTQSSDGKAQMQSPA
Chain of human plasma kallikrein (P03952 20-390 partner): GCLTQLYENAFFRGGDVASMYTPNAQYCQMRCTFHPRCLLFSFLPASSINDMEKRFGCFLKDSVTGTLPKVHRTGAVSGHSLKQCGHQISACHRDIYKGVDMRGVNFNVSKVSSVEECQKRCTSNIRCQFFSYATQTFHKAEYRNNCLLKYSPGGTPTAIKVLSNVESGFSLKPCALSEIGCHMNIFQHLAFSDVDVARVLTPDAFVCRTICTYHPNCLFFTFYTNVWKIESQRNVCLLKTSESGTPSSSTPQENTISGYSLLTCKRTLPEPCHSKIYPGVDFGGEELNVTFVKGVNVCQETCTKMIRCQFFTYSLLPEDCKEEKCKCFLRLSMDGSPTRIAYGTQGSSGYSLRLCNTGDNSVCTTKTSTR

In the case of `CO[C@@H]1C[C@H](C(=O)Nc2cccc(C(N)(CCC3CC3)c3ccncc3)c2)N(C(=O)Nc2ccc(Cl)cn2)C1` (stereo partly drawn) [Compound 75e, (2R,4R)-N2-(3-((+)-1-amino-3-cyclopropyl-1-(pyridin-4-yl)propyl)phenyl)-N1-(5-chloropyridin-2-yl)-4-methoxypyrrolidine-1,2-dicarboxamide], the Ki [1] is reported as under 50 nM.

`CO[C@@H]1C[C@H](C(=O)Nc2cc(C(N)(CCC3CC3)c3ccncc3)ccc2F)N(C(=O)Cc2ccc(Cl)cc2)C1` (stereo partly drawn) [Compound 76e, (2R,4R)-N-(5-((+)-1-amino-3-cyclopropyl-1-(pyridin-4-yl)propyl)-2-fluorophenyl)-1-(2-(4-chlorophenyl)acetyl)-4-methoxypyrrolidine-2-carboxamide] showed a Ki [1] of over 100 nM.

Molecule `CCNC(CCC1CC1)(c1ccncc1)c1ccc(F)c(NC(=O)[C@H]2C[C@@H](OC)CN2C(=O)Nc2ccc(Cl)cn2)c1` (stereo partly drawn) [Compound 77a, (2R,4R)-N1-(5-chloropyridin-2-yl)-N2-(5-((+)-3-cyclopropyl-1-(ethylamino)-1-(pyridin-4-yl)propyl)-2-fluorophenyl)-4-methoxypyrrolidine-1,2-dicarboxamide] has a Ki [1] of under 50 nM.

`CCNC(CCC1CC1)(c1ccnc(C)c1)c1ccc(F)c(NC(=O)[C@H]2C[C@@H](OC)CN2C(=O)Nc2ccc(Cl)cn2)c1` (stereo partly drawn) [Compound 78a, (2R,4R)-N1-(5-chloropyridin-2-yl)-N2-(5-((+)-3-cyclopropyl-1-(ethylamino)-1-(2-methylpyridin-4-yl)propyl)-2-fluorophenyl)-4-methoxypyrrolidine-1,2-dicarboxamide] gave a Ki [1] of under 50 nM.

`CNC(CCC1CC1)(c1ccnc(C)c1)c1ccc(F)c(NC(=O)[C@H]2C[C@@H](OC)CN2C(=O)Nc2ccc(Cl)cn2)c1` (stereo partly drawn) [Compound 79a, (2R,4R)-N1-(5-chloropyridin-2-yl)-N2-(5-((+)-3-cyclopropyl-1-(methylamino)-1-(2-methylpyridin-4-yl)propyl)-2-fluorophenyl)-4-methoxypyrrolidine-1,2-dicarboxamide] gave a Ki [1] of under 50 nM.

Work on `NC(CCC1CC1)(c1ccncc1)c1ccc(F)c(NC(=O)[C@H]2C[C@H]3C[C@H]3N2)c1` (stereo partly drawn) [Compound 80c, (1R,3R,5R)-N-(5-((+)-1-amino-3-cyclopropyl-1-(pyridin-4-yl)propyl)-2-fluorophenyl)-2-azabicyclo[3.1.0]hexane-3-carboxamide] yielded a Ki [1] of 50 to 100 nM.

With `CO[C@@H]1C[C@H](C(=O)Nc2cc(C(N)(CCC3CC3)c3ccncc3)ccc2F)N(C(=O)Nc2ccc(Cl)s2)C1` (stereo partly drawn) [Compound 81h, (2R,4R)-N2-(5-((−)-1-amino-3-cyclopropyl-1-(pyridin-4-yl)propyl)-2-fluorophenyl)-N1-(5-chlorothiophen-2-yl)-4-methoxypyrrolidine-1,2-dicarboxamide] the Ki [1] was under 50 nM.

For `CO[C@@H]1C[C@H](C(=O)Nc2cc(C(N)(CCC3CC3)c3ccncc3)ccc2F)N(C(=O)c2ccc3cc[nH]c3c2)C1` (stereo partly drawn) [Compound 82a, (2R,4R)-N-(5-(-(+)-1-amino-3-cyclopropyl-1-(pyridin-4-yl)propyl)-2-fluorophenyl)-1-(1H-indole-6-carbonyl)-4-methoxypyrrolidine-2-carboxamide], the Ki [1] was over 100 nM.

In the case of `CO[C@@H]1C[C@H](C(=O)Nc2cc(C(N)(CCC3CC3)c3ccncc3)ccc2F)N(C(=O)c2ccc3c(Cl)c[nH]c3c2)C1` (stereo partly drawn) [Compound 83a, (2R,4R)-N-(5-((+)-1-amino-3-cyclopropyl-1-(pyridin-4-yl)propyl)-2-fluorophenyl)-1-(3-chloro-1H-indole-6-carbonyl)-4-methoxypyrrolidine-2-carboxamide], the Ki [1] is reported as over 100 nM.

Molecule `CO[C@@H]1C[C@H](C(=O)Nc2cc(C(N)(CCC3CC3)c3ccncc3)ccc2F)N(C(=O)c2ccc(Cl)c(N)c2)C1` (stereo partly drawn) [Compound 84a, (2R,4R)-N-(5-((+)-1-amino-3-cyclopropyl-1-(pyridin-4-yl)propyl)-2-fluorophenyl)-1-(3-amino-4-chlorobenzoyl)-4-methoxypyrrolidine-2-carboxamide] has a Ki [1] of over 100 nM.

Molecule `CO[C@@H]1C[C@H](C(=O)Nc2cc(C(N)(CCC3CC3)c3ccncc3)ccc2F)N(C(=O)c2ccc(F)c(N)c2)C1` (stereo partly drawn) [Compound 85a, (2R,4R)-N-(5-((+)-1-amino-3-cyclopropyl-1-(pyridin-4-yl)propyl)-2-fluorophenyl)-1-(3-amino-4-fluorobenzoyl)-4-methoxypyrrolidine-2-carboxamide] has a Ki [1] of over 100 nM.

With `CO[C@@H]1C[C@H](C(=O)Nc2cc(C(N)(CCC3CC3)c3ccncc3)ccc2F)N(C(=O)c2cccc(C#N)c2)C1` (stereo partly drawn) [Compound 86a, (2R,4R)-N-(5-((+)-1-amino-3-cyclopropyl-1-(pyridin-4-yl)propyl)-2-fluorophenyl)-1-(3-cyanobenzoyl)-4-methoxypyrrolidine-2-carboxamide] the Ki [1] was over 100 nM.

`CO[C@@H]1C[C@H](C(=O)Nc2cc([C@](CCC3CC3)(N[S@+]([O-])C(C)(C)C)c3ccncc3)ccc2F)N(S(=O)(=O)c2ccc3cc(Cl)ccc3c2)C1` [Compound 87b, (2R,4R)-1-(6-chloronaphthalen-2-ylsulfonyl)-N-(5-((S)-3-cyclopropyl-1-((R)-1,1-dimethylethylsulfinamido)-1-(pyridin-4-yl)propyl)-2-fluorophenyl)-4-methoxypyrrolidine-2-carboxamide] gave a Ki [1] of over 100 nM.

For `NC(N)=NCCC[C@@H](N)C(=O)N[C@@H](CCCN=C(N)N)C(=O)N1CCC[C@H]1C(=O)N1C[C@H](O)C[C@H]1C(=O)NCC(=O)N[C@@H](Cc1cccs1)C(=O)N[C@@H](CO)C(=O)N1Cc2ccccc2C[C@@H]1C(=O)N1[C@H](C(=O)N[C@@H](CCCN=C(N)N)C(=O)O)C[C@@H]2CCCC[C@@H]21` [Icatibant], the “treating HAE” value [2] is listed as “effective in treating HAE”.

In the case of `Cl.NCC1CCC(C(=O)N[C@@H](Cc2ccccc2)C(=O)Nc2ccc(CC(=O)O)cc2)CC1` (some centres unmarked) [PKSI-527], the joint swelling [3] is given as “reduce joint swelling”.

Work on “(2R,4R)-N1-(4-chlorophenyl)-N2-(5-((+)-3-cyclopropyl-1-((S)-1,1-dimethylethylsulfinamido)-1-(pyridin-2-yl)propyl)-2-fluorophenyl)-4-hydroxypyrrolidine-1,2-dicarboxamide [Compound 61b]” yielded a Ki [1] of under 50 nM.

For ecallantide [DX-88], the “edema in patients with hereditary angioedema (HAE)” value [2] is given as “alleviates edema” and the “brain edema, infarct volume, and neurological deficits” value [4] is given as “reduced brain edema, infarct volume, and neurological deficits”.

B1: C1-inhibitor: a physiological inhibitor (C1-inhibitor) (protein, UniProt P05155 23-500, looked up)
Plasma protease C1 inhibitor: NPNATSSSSQDPESLQDRGEGKVATTVISKMLFVEPILEVSSLPTTNSTTNSATKITANTTDEPTTQPTTEPTTQPTIQPTQPTTQLPTDSPTQPTTGSFCPGPVTLCSDLESHSTEAVLGDALVDFSLKLYHAFSAMKKVETNMAFSPFSIASLLTQVLLGAGENTKTNLESILSYPKDFTCVHQALKGFTTKGVTSVSQIFHSPDLAIRDTFVNASRTLYSSSPRVLSNNSDANLELINTWVAKNTNNKISRLLDSLPSDTRLVLLNAIYLSAKWKTTFDPKKTRMEPFHFKNSVIKVPMMNSKKYPVAHFIDQTLKAKVGQLQLSHNLSLVILVPQNLKHRLEDMEQALSPSVFKAIMEKLEMSKFQPTLLTLPRIKVTTSQDMLSIMEKLEFFDFSYDLNLCGLTEDPDLQVSAMQHQTVLELTETGVEAAAASAISVARTLLVFEVQQPFLFVLWDQQHKFPVFMGRVYDPRA
In the case of B1, the “clinical outcome in sepsis patients” value [5] is given as “Clinical improvement was observed” and the infarct size [6] is given as “reduced infarct size”.
